Experimental data taken from PMC5242521 (PLoS ONE, 2017).

Experiments:
OAT3 = biological target: T1, OAT3 (Homo sapiens, UniProt Q8TCC7); assay: OAT3 activity: fluorescein accumulation in HEK-OAT3 cells; conditions: for effect on OAT3 activity: pyrethroid 100 μM; for inhibition at 100 μM: human, pH 7.4
T1 sequence (Q8TCC7 1-542): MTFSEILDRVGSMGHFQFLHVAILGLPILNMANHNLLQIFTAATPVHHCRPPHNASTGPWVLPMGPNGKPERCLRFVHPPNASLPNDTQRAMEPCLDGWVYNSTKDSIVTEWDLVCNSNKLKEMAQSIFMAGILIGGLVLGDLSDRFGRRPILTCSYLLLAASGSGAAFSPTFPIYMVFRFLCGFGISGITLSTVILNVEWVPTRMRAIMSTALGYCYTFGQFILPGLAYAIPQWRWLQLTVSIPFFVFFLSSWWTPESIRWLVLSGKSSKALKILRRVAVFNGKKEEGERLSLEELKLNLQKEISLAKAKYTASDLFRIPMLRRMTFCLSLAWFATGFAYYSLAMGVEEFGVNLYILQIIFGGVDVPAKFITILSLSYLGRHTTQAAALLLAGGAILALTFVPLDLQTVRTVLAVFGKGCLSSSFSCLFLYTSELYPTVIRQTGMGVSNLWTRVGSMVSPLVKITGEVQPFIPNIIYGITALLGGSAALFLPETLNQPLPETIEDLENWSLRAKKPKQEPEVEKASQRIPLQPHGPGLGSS
Protocol: (§1) The effects of pyrethroids on activity of ABC and SLC transporters were determined through measuring cellular accumulation or retention of fluorescent or radiolabeled reference substrates for transporters, in the presence or absence of reference inhibitors, as previously described. The nature of cells and reference substrates and inhibitors used for transport assays are summarized in S3 Table.
For accumulation assays (performed for all transporters, excepted BCRP), transporter-expressing cells usually cultured in 48-well plates were first incubated at 37°C with reference substrates in the absence (control) or presence of pyrethroids or reference inhibitors, in a well-defined transport assay medium, consisting of 136 mM NaCl, 5.3 mM KCl, 1.1mM KH2PO4, 0.8 mM MgSO4, 1.8 mM CaCl2, 10 mM HEPES, 11 mM D-glucose and adjusted to pH = 7.4 (excepted for MATE transporter assays, for which pH was set to 8.4). The nature of substrates and reference inhibitors and the incubation times with substrates, that varied according to the transporter, were selected in agreement with previous studies and are indicated in S3 Table. The total incubation volume with substrates was 200 μL/well. After washing twice in phosphate-buffered saline (PBS) (200 μL/well/washing), cells were lysed in distilled water (155 μL/well). An aliquot of cell lysate (5 μL) was then taken for determining cellular protein content by the Bradford method. The rest of lysate (150 μL/well) was used for measuring intracellular accumulation of reference substrates by scintillation counting or spectrofluorimetry using a SpectraMax Gemini SX spectrofluorometer (Molecular Devices, Sunnyvale, CA, USA) (excitation and emission wavelengths were 485 and 535 nm, respectively, for rhodamine 123 and fluorescein, and 355 and 460 nm, respectively, for DAPI).
(§2) Intracellular concentrations of reference substrates were initially expressed as fluorescence arbitrary units (for fluorescent dye substrates) or as moles (for radiolabeled substrates) and normalized to cellular protein content, determined by the Bradford method. They were finally used for calculating percentage of transporter activity, according to the following equations [41, 45]: %ABCtransporter activity=([Substrateref inh]-[Substratepyrethroid])×100/([Substrateref inh]-[Substratecontrol]) (1) %SLC transporter activity=([Substratepyrethroid]-[Substratref inh])×100/([Substratecontrol]-[Substrateref inh]) (2) with [Substratepyrethroid] = cellular concentration of reference substrate in the presence of pyrethroid, [Substrateref inh] = cellular concentration of reference substrate in the presence of reference inhibitor and [Substratecontrol] = cellular concentration of reference substrate in control cells not exposed to pyrethroid or reference inhibitor.
(§3) The initial tested concentration of pyrethroids was 100 μM. […] Such concentrations were calculated using GraphPad Prism software (GraphPad Software, La Jolla, CA), through nonlinear regression based on the four parameter logistic function using the following equations: […]

OCT2 = biological target: T2, OCT2 (Homo sapiens, UniProt O15244); assay: OCT2 activity: rhodamine 123 accumulation in HEK-OCT2 cells; conditions: for effect on OCT2 activity: pyrethroid 100 μM
T2 sequence (O15244 1-555): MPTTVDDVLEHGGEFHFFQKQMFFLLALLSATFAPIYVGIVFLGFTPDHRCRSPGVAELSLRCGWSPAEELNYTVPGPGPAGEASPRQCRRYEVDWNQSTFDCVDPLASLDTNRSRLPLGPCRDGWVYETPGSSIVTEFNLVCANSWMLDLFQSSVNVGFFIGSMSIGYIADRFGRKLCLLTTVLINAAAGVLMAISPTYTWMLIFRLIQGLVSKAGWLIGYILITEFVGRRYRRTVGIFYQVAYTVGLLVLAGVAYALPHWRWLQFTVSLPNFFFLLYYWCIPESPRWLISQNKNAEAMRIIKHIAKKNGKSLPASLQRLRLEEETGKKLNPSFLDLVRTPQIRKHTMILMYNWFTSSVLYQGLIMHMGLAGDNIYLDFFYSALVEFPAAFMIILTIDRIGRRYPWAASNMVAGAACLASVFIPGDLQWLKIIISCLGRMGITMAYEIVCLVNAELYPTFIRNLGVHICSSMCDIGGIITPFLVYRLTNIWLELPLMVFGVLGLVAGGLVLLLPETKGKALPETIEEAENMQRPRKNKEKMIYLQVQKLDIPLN
Protocol: as §1
The nature of substrates and reference inhibitors and the incubation times with substrates, that varied according to the transporter, were selected in agreement with previous studies and are indicated in S3 Table. The total incubation volume with substrates was 200 μL/well. […] An aliquot of cell lysate (5 μL) was then taken for determining cellular protein content by the Bradford method.
as §2, §3

Row | SMILES | effect on OAT3 activity (OAT3) | effect on OCT2 activity (OCT2) | IC50 (OAT3) [µM] | inhibition at 100 μM (OAT3) [%] | IC50 (OCT2) [µM]
1 | C#CCN1CC(=O)N(COC(=O)[C@@H]2C(C=C(C)C)C2(C)C)C1=O (mixture of isomers) [imiprothrin] | inhibited | inhibited | – | – | –
2 | C=CCC1=C(C)C(OC(=O)C2C(C=C(C)C)C2(C)C)CC1=O (stereo not drawn) [allethrin] | – | markedly inhibit | 69.4 | 74.8 | 42.6
3 | C#CCC1=C(C)C(OC(=O)C2C(C=C(C)C)C2(C)C)CC1=O (stereo not drawn) [prallethrin] | inhibited | inhibited | – | – | –
4 | CC(C)=CC1C(C(=O)OCN2C(=O)C3=C(CCCC3)C2=O)C1(C)C (stereo not drawn) [tetramethrin] | – | markedly inhibit | 77.6 | 69.3 | 11.2
